Experimental findings from paper PMC4951196, “The Lamin B receptor is essential for cholesterol synthesis and perturbed by disease-causing mutations” (eLife, 2016) are described below.

The assay has as its target T1, Lamin B receptor (LBR) (Homo sapiens, UniProt Q14739).
T1 construct: Flag-tagged LBR, WT, expressed in Expi293 cells and purified
T1 sequence (Q14739 1-615): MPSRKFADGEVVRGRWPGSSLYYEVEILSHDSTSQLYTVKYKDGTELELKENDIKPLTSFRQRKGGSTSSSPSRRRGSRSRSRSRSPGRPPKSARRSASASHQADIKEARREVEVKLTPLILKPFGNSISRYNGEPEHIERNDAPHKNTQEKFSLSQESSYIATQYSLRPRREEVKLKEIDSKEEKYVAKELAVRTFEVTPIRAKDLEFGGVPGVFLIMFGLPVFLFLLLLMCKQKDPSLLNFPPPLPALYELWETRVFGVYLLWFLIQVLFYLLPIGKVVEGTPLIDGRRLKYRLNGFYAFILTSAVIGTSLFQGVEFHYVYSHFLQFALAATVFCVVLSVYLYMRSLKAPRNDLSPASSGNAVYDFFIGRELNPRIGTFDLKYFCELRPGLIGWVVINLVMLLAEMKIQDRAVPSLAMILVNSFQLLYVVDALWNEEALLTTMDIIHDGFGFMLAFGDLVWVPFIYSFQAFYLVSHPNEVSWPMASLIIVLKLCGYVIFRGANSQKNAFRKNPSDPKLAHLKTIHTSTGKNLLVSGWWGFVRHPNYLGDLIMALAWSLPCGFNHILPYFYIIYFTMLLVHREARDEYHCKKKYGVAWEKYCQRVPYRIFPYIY
Nature of the assay: intrinsic tryptophan fluorescence titration of purified LBR. Type of assay: binding.

pKd: −log10 of the molar value.

For the molecule `NC(=O)C1=CN([C@@H]2O[C@H](COP(=O)(O)OP(=O)(O)OC[C@H]3O[C@@H](n4cnc5c(N)ncnc54)[C@H](OP(=O)(O)O)[C@@H]3O)[C@@H](O)[C@H]2O)C=CC1` [NADPH], the negative logarithm of the Kd (pKd) (in general, −log10 of the Kd, conventionally taken in molar units) was 4.62.
